Assay results published in patent US20030166202A1, “P450 Monooxygenases of the cyp79 family” (priority 2000, published 2003).

Legend:
[1] = biological target: CYP79D1 (Manihot esculenta, UniProt Q9M7B8)
Method: Isolated, recombinant CYP79D1 is reconstituted and its catalytic activity determined in vitro using reaction mixtures with a total volume of 30 μl containing 2.5 pmol CYP79D1, 0.05 U NADPH P450-oxidoreductase (Benveniste et al, Biochem J 235: 365-373, 1986), 10.6 mM L-α-dioleyl phosphatidylcholine, 0.35 μCi [U-^14C]-L-amino acid (L-Val, L-Ile, L-Leu, L-Tyr or L-Phe; Amersham, Sweden), 1 mM NADPH, 0.1 M NaCl and 20 mM KPi pH 7.9. In assays containing ^14C-L-valine or ^14C-L-isoleucine, different amounts of unlabeled L- and D-amino acids (0-6 mM) are added. After incubation for 10 minutes at 30° C. the products formed are extracted into 60 μl ethyl acetate and separated on TLC sheets (Merck Kieselgel 60F254) using n-pentane/diethyl ether (50:50, v/v) or toluene/ethyl acetate (5:1, v/v) as eluents for aliphatic compounds and aromatic compounds, respectively. ^14C-labeled oximes are visualized and quantified using a STORM 840 phosphor imager (Molecular Dynamics, CA, USA). The activity of CYP79D1 is additionally measured in the presence of the inhibitors tetcyclasis, ABT and DPI under the same conditions as described above. For in vivo activity assays 200 μl P. pastoris cells are pelleted and resuspended in 100 μl 50 mM Tricine pH 7.9 and 0.35 μCi [U-^14C]-L-valine or L-isoleucine. After incubation for 30 minutes at 30° C. the cells are extracted with ethyl acetate and the products formed are analyzed as above.
CYP79D1 is reconstituted with sorghum NADPH-P450 oxidoreductase in the presence of high amounts of the lipid L-α-dioleyl phosphatidylcholine and 100 mM NaCl. […] To examine the effect of inhibitors on isolated CYP79D1, reconstitutions are performed in the presence of tetcyclasis, ABT and DPI using the same conditions as for cassava microsomes.

[2] = biological target: T1, CYP79E1 (Manihot esculenta, UniProt Q9M7B8); test: Substrate specificity / reconstitution of CYP79E1; type: biochemical, Triglochin maritima
T1 construct: A full length construct (CYP79E1na) encoding native CYP79E1 with silent mutations introduced at codons 3 and 5; made in house; host or cells: E. coli JM109 (vector pSP19g10L)
T1 sequence (Q9M7B8 whole entry): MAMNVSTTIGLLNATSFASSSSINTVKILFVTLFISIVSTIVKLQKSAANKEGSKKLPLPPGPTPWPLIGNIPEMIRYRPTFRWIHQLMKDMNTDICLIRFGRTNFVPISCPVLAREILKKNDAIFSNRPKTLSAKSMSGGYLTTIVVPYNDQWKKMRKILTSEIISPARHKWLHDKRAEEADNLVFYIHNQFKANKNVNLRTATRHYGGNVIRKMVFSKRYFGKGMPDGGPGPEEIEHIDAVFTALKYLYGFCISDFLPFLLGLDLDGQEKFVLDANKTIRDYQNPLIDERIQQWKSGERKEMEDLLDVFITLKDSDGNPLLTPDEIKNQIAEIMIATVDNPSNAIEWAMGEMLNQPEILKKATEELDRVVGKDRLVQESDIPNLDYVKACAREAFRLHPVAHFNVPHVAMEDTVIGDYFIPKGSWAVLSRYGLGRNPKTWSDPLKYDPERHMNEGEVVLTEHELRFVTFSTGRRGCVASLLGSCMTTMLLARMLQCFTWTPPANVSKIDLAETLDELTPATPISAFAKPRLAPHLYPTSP
Method: (§1) Investigations into the substrate specificity of CYP79D1, CYP79D2, CYP79E1, CYP79E2, CYP79A2, CYP79B2, CYP79B5 and CYP79F1 are carried out in E. coli spheroplasts reconstituted with sorghum NADPH-cytochrome P450 oxidoreductase in the presence of high amounts of lipids. L-α-dioleyl phosphatidyl choline and L-α-dilauroyl phosphatidyl choline are preferred lipids for the reconstitution. […] Neither L-methionine, L-tryptophane nor L-tyrosine are metabolized by CYP79A2. Neither phenylalanine nor tyrosine are metabolized by CYP79B2. Neither L-tryptophane, L-phenylalanine nor L-tyrosine are metabolized by CYP79F1. D-Amino acids are not converted into oximes by CYP79D1, CYP79D2, CYP79E1 and CYP79E2. Depending on the nature of the substrate, substrate specificity may also be determined using intact P. pastoris cells or intact E. coli cells.
(§2) Expression levels of the different constructs are determined by CO difference spectroscopy and quantified using an extinction coefficient ε450-490 of 91 mM^−1cm^−1 (Omura et al, J. Biol. Chem. 239: 2370-2378, 1964). Spectra are made from 100 μl or 500 μl whole E. coli cells or using the rich phases from Triton X-114 phase partitioning solubilized in 50 mM KH2PO4/K2HPO4 pH 7.5, 2 mM EDTA, 20% glycerol, 0.2% Triton X-100 (total volume: 1 ml). […] In vitro activities are measured in reconstitution experiments using the rich phase from phase partitioning. […]

[3] = system: CYP79E2; test: Substrate specificity / reconstitution of CYP79E2; type: biochemical, Triglochin maritima
Method: as §1, §2

[4] = with NADPH, NADPH-cytochrome P450 oxidoreductase, CYP71E1

Sequence of CYP79D1 (Q9M7B8 2-542): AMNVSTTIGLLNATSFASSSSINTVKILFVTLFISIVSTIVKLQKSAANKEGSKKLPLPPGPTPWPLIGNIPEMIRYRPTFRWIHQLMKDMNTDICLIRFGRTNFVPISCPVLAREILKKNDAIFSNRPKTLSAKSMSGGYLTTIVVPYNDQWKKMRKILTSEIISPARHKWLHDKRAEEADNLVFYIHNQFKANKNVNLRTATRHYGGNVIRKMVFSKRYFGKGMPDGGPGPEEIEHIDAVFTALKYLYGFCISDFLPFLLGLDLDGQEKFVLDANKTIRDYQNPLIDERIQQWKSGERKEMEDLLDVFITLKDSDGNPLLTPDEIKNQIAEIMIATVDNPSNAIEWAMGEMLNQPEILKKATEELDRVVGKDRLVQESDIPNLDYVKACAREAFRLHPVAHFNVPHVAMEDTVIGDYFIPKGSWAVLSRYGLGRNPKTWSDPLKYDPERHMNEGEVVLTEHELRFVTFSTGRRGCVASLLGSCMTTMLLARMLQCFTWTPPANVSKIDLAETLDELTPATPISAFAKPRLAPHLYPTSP

N[C@@H](Cc1ccc(O)cc1)C(=O)O [L-tyrosine]
metabolism relative to that observed with L-valine (detection level) [1]: < 0.8%
conversion to the corresponding oxime by CYP79E1 [2]: found to convert
product accumulation in reconstitution of CYP79E1 with CYP71E1 [2, 4]: considerable amounts of p-hydroxyphenylacetonitrile and p-hydroxybenzaidehyde accumulate
conversion to the corresponding oxime by CYP79E2 [3]: found to convert
product accumulation in reconstitution of CYP79E2 with CYP71E1 [3, 4]: considerable amounts of p-hydroxyphenylacetonitrile and p-hydroxybenzaidehyde accumulate
